{"source": "patent US9717247B2", "about": "“Synergistic fungicidal active combinations” (BAYER CROPSCIENCE AG, priority 2003, dated 2017)", "key": {"Pyrenophora teres": {"test_system": "Pyrenophora teres", "assay": "Pyrenophora teres test (barley)/curative", "conditions": "in Hordeum vulgare, 288 h, read-out: Efficacy in % found"}, "[1]": {"test_system": "Erysiphe graminis f.sp. hordei", "assay": "Erysiphe test (barley)/curative", "type": "in vivo", "conditions": "application rate 25 g/ha, curative, evaluation 6 days after inoculation"}, "Botrytis cinerea [2]": {"test_system": "Botrytis cinerea", "assay": "Botrytis cinerea test (in vitro)/microtitre plates", "type": "cell-based", "conditions": "3 ppm, PDB, 7 days of incubation"}, "Puccinia recondita": {"test_system": "Puccinia recondita", "assay": "Puccinia recondita test (wheat)/curative", "conditions": "application rate 62.5 g/ha, curative, evaluation 8 days after inoculation"}, "Pyricularia oryzae": {"test_system": "Pyricularia oryzae", "type": "cell-based", "conditions": "3 ppm; in vitro, PDB, 3 days of incubation"}, "Rhizoctonia solani": {"test_system": "Rhizoctonia solani", "assay": "Rhizoctonia solani test (in vitro)/microtitre plates", "type": "cell-based", "conditions": "PDB, 5 days of incubation", "experimental": "Rhizoctonia solani Test (In Vitro)/Microtitre Plates The microtest is carried out in microtitre plates using potato dextrose broth (PDB) as liquid test medium. The active compounds are used as technical grade a.i., dissolved in acetone. For inoculation, a mycelium suspension of Rhizoctonia solani is used. After 5 days of incubation in the dark and with shaking (10 Hz) for each filled cavity of the microtitre plates, the light transmittance is determined with the aid of a spectrophotometer."}, "Sphaerotheca fuliginea": {"test_system": "Sphaerotheca fuliginea", "assay": "Sphaerotheca fuliginea test (cucumber)/protective", "type": "in vivo", "conditions": "Podosphaera fuliginea, 168 h, protective, 7 days after inoculation, read-out: Efficacy in % found"}, "Gibberella zeae": {"test_system": "Gibberella zeae", "type": "cell-based", "conditions": "0.3 ppm; in vitro, PDB, 3 days of incubation"}, "[3]": {"test_system": "Erysiphe graminis f.sp. hordei", "assay": "Erysiphe test (barley)/protective", "type": "in vivo", "conditions": "application rate 12.5 g/ha, protective, evaluation 6 days after inoculation"}, "Botrytis cinerea [4]": {"test_system": "Botrytis cinerea", "assay": "Botrytis cinerea test (bean)/protective", "conditions": "protective, 2 days after inoculation"}, "Plasmopara viticola": {"test_system": "Plasmopara viticola", "assay": "Plasmopara viticola test (grapevine)/protective", "type": "in vivo", "conditions": "protective, 6 days after inoculation"}, "Alternaria solani": {"test_system": "Alternaria solani", "assay": "Alternaria solani test (tomato)/protective", "type": "in vivo", "conditions": "protective, 3 days after inoculation"}}}
{"smiles": "Cc1nn(C)c(F)c1C(=O)Nc1ccccc1C(C)CC(C)C", "note": "(stereo not drawn) [(1-2), N-[2-(1,3-dimethylbutyl)phenyl]-5-fluoro-1,3-dimethyl-1H-pyrazole-4-carboxamide]", "values": [{"measurement": "pest or weed control at 25 g/ha", "setting": "Pyrenophora teres", "value": 29, "unit": "%"}, {"measurement": "pest or weed control at 62.5 g/ha", "setting": "Pyrenophora teres", "value": 71, "unit": "%"}, {"measurement": "Efficacy in % found", "setting": "[1]", "value": 0, "unit": "%"}, {"measurement": "Efficacy in % found", "setting": "Botrytis cinerea [2]", "value": 35, "unit": "%"}, {"measurement": "Efficacy in % found", "setting": "Puccinia recondita", "value": 94, "unit": "%"}, {"measurement": "Efficacy in % found", "setting": "Pyricularia oryzae", "value": 17, "unit": "%"}, {"measurement": "Efficacy in % found", "setting": "Rhizoctonia solani; 0.003 ppm", "value": 30, "unit": "%"}, {"measurement": "Efficacy in % found", "setting": "Rhizoctonia solani; 1 ppm", "value": 40, "unit": "%"}, {"measurement": "pest or weed control at 0.5 g/ha", "setting": "Sphaerotheca fuliginea; application rate 0.5 g/ha", "value": 0, "unit": "%"}, {"measurement": "pest or weed control at 1 g/ha", "setting": "Sphaerotheca fuliginea; application rate 1 g/ha", "value": 18, "unit": "%"}, {"measurement": "pest or weed control at 2 g/ha", "setting": "Sphaerotheca fuliginea; application rate 2 g/ha", "value": 30, "unit": "%"}, {"measurement": "pest or weed control at 4 g/ha", "setting": "Sphaerotheca fuliginea; application rate 4 g/ha", "value": 20, "unit": "%"}, {"measurement": "Efficacy in % found", "setting": "Gibberella zeae", "value": 39, "unit": "%"}, {"measurement": "Efficacy in % found", "setting": "[3]", "value": 0, "unit": "%"}, {"measurement": "Efficacy in % found", "setting": "Botrytis cinerea [4]; application rate 5 g/ha", "value": 33, "unit": "%"}, {"measurement": "Efficacy in % found", "setting": "Botrytis cinerea [4]; application rate 10 g/ha", "value": 64, "unit": "%"}, {"measurement": "Efficacy in % found", "setting": "Botrytis cinerea [4]; application rate 20 g/ha", "value": 66, "unit": "%"}, {"measurement": "Efficacy in % found", "setting": "Plasmopara viticola; application rate 25 g/ha", "value": 0, "unit": "%"}, {"measurement": "Efficacy in % found", "setting": "Plasmopara viticola; application rate 50 g/ha", "value": 0, "unit": "%"}, {"measurement": "Efficacy in % found", "setting": "Alternaria solani; application rate 1 g/ha", "value": 3, "unit": "%"}, {"measurement": "Efficacy in % found", "setting": "Alternaria solani; application rate 2 g/ha", "value": 23, "unit": "%"}]}
